Like-named read-outs stand apart in the source and are kept apart here.
Assays:
RLS subjects [1] = conditions: for IRLS Total (Absolute Change) Mean / IRLS Total (Absolute Change) Median / IRLS Total (Percent Change) Mean / IRLS Total (Percent Change) Median / IRLS Total Mean / IRLS Total Median: rasagiline 1 mg/day oral
Procedure: (§1) This was the first clinical study in which rasagiline was administered to RLS subjects. The dosage regimen of 1 mg/day rasagiline was chosen based on the optimal dosage regimen for the symptomatic treatment of PD. […] Therefore, in the event that a subject could not tolerate the 1 mg daily dose of rasagiline, a daily dose of 0.5 mg rasagiline was permitted. Rasagiline was administered orally as a tablet. Both the 1 mg and 0.5 mg rasagiline tablets were beveled round tablets, flat, white to off-white, scored on one side, plain on the other side. Teva Pharmaceutical Industries Ltd. was responsible for the manufacture and primary packaging of study medications according to current Good Manufacturing Practice (cGMP) principles and guidelines applicable to investigational medicinal products.
IRLS (International Restless Legs Scale)
The IRLS scale is comprised of 10 items designed to assess the severity of sensory and motor symptoms, sleep disturbance, daytime somnolence, and impact on activities of daily living and mood associated with RLS. All items receive a grade in the range 0 to 4 (0=absence of a problem, 4=very severe problem) giving a maximum score of 40.
The investigator scored subjects on the IRLS at all scheduled study visits. The primary efficacy endpoint was based on the change from baseline to weeks 2, 4, and 8 in IRLS scores.
Each of 10 items were graded on a scale between 0 and 4 where 0 denotes the absence of a problem, and 4 a very severe problem.

RLS subjects [2] = conditions: for IRLS QoL Total (Absolute Change) Mean / IRLS QoL Total (Absolute Change) Median / IRLS QoL Total (Percent Change) Mean / IRLS QoL Total (Percent Change) Median / IRLS QoL Total Mean / IRLS QoL Total Median: rasagiline 1 mg/day oral
Procedure: as §1
The Restless Leg Syndrome Quality of Life questionnaire (RLS QoL) assesses the impact of RLS on daily life, emotional well-being, social life and work life. It is an 18-item questionnaire with a total score ranging 0 to 100. […] The lower the score, the greater the impact of RLS on quality of life.
The RLS QoL questionnaire was completed by the investigator at the baseline and Week 4, and 8 visits. The change from baseline to each post-baseline study visit was calculated as an additional efficacy endpoint.

[3] = test system: patients with moderate to severe primary Restless Legs Syndrome; test: Placebo-controlled, double-blind, randomized clinical test in primary RLS (Example 8)

## C#CCN[C@@H]1CCc2ccccc21 [rasagiline, R-(+)-N-propargyl-1-aminoindan]
RLS subjects [1]; VISIT WEEK 1, N=2
  IRLS Total (Absolute Change) Mean: −3.00
  IRLS Total (Absolute Change) Median: −3.00
  IRLS Total (Percent Change) Mean: −11.54%
  IRLS Total (Percent Change) Median: −11.54%
  IRLS Total Mean: 29.00
  IRLS Total Median: 29.00
RLS subjects [1]; VISIT WEEK 3, N=1
  IRLS Total (Absolute Change) Mean: −14.00
  IRLS Total (Absolute Change) Median: −14.00
  IRLS Total (Percent Change) Mean: −53.85%
  IRLS Total (Percent Change) Median: −53.85%
  IRLS Total Mean: 12.00
  IRLS Total Median: 12.00
RLS subjects [1]; VISIT WEEK 4, N=2
  IRLS Total (Absolute Change) Mean: −6.50
  IRLS Total (Absolute Change) Median: −6.50
  IRLS Total (Percent Change) Mean: −25.00%
  IRLS Total (Percent Change) Median: −25.10%
  IRLS Total Mean: 25.50
  IRLS Total Median: 25.50
RLS subjects [1]; after 2 weeks, 2 subjects, baseline mean 32
  mean IRLS Rating Scale score: 29
RLS subjects [1]; at 4 weeks, one subject
  IRLS Rating Scale score: 13
  decrease from baseline in IRLS Rating Scale score: 50%
RLS subjects [1]; by 8 weeks, remaining subject
  IRLS score: 12
  decrease from baseline in IRLS score: 54%
RLS subjects [1]; in at least a subset of RLS patients
  effect on the symptoms of RLS: clinically significant effect
RLS subjects [1]; week 4, subject who discontinued, unchanged from baseline
  IRLS Rating Scale score: 38
RLS subjects [2]; VISIT WEEK 4, N=2
  IRLS QoL Total (Absolute Change) Mean: 16.67
  IRLS QoL Total (Absolute Change) Median: 16.67
  IRLS QoL Total (Percent Change) Mean: 35.19%
  IRLS QoL Total (Percent Change) Median: 35.19%
  IRLS QoL Total Mean: 62.92
  IRLS QoL Total Median: 62.92
RLS subjects [2]; VISIT WEEK 8, N=1
  IRLS QoL Total (Absolute Change) Mean: 25.00
  IRLS QoL Total (Absolute Change) Median: 25.00
  IRLS QoL Total (Percent Change) Mean: 37.04%
  IRLS QoL Total (Percent Change) Median: 37.04%
  IRLS QoL Total Mean: 92.50
  IRLS QoL Total Median: 92.50
RLS subjects [2]; by eight weeks, remaining subject
  improvement in the IRLS Quality of Life Questionnaire compared to baseline: 37%
[3]; 0.5 mg and 1 mg groups, in comparison with the placebo group
  IRLSSG values, change from starting value: significant improvement
[3]; end of treatment, both patient groups
  subjective symptoms (tingling, cramps and pain in the legs, restlessness, difficulties falling or remaining asleep): either disappear or diminish to a tolerable minimum
[3]; patient reports
  hallucinations, somnolence, edema, nausea, vomiting or diarrhea: does not or only to a very minimal extent causes
[3]; patients in a moderate to severe stage of RLS
  clinical improvement: distinct clinical improvement
[3]; patients with moderate to severe RLS
  tolerability and safety: well tolerated and safe
